# According to patent EP0366632A1, “Alternative energy substrates” (priority 1988, dated 1990):
# Several values for one entry are separate records, joined by “and”; a condition that tells them apart may be missing. Equal values may be shown once. Entries after “also recorded” stand apart in the source; their conditions may differ.
# What was measured:
# Cand. parapsil. (yeast) = assay: Microorganism count in 2% ester emulsions (Example 12, Table 1); type: cell-based; settings: 2% emulsion, phosphate buffer pH=7.0, +37°C, Additive/ml 5012
# Method: (§1) In addition to ester, the emulsions also comprised egg-yolk phospholipid 1,2% and sterile water. The emulsions were prepared aseptically, by emulsifying sterile-filtered ester with a sterilized dispersion of egg-yolk phospholipids. Aliquots of these emulsions were diluted with a phosphate buffer (0.01 M, pH=7.0) in the proportions of 1 and 10 respectively, so as to obtain 2-percent emulsions. Various microorganisms according to Table 1 below were added to these emulsions. The samples were then incubated at +37°C for 20 hours. Counting of the number of microorganisms was started after 2 and 20 hours, in the manner described in microbiological literature. Checks were run on a pure phosphate buffer with additives of the same microorganisms as earlier, in parallel with the aforesaid experiments, while checks were run in Tryptone Soya broth (TSB) with additions of the same microorganisms, in order to ascertain whether or not the microorganisms could survive, i.e. could grow under the ideal conditions. […]
# E. coli ATCC 8739 = assay: as above; type: cell-based; settings: 2% emulsion, phosphate buffer pH=7.0, +37°C, Additive/ml 6310
# Method: as §1
# Enter. cloacae = assay: as above; type: cell-based; settings: 2% emulsion, phosphate buffer pH=7.0, +37°C, Additive/ml 1585
# Method: as §1
# Proteus vulg. ATCC 13315 = assay: as above; type: cell-based; settings: 2% emulsion, phosphate buffer pH=7.0, +37°C, Additive/ml 1000
# Method: as §1
# [1] = test system: Ps. aeruginosa ATCC 19429; assay: as above; type: cell-based; settings: 2% emulsion, phosphate buffer pH=7.0, +37°C, Additive/ml 7943
# Method: as §1
# Serr. maresc. ATCC 14756 = assay: as above; type: cell-based; settings: 2% emulsion, phosphate buffer pH=7.0, +37°C, Additive/ml 6310
# Method: as §1
# [2] = Cold storage of fat emulsion (Intralipid) with ester admixture: visual inspection, pH, mean particle size; type: physicochemical; settings: for emulsion quality (oil droplets, creaming, oil separation), daily inspection: Example 5: mother concentrate in Intralipid 10%; for emulsion quality (oil droplets, creaming, oil separation), daily inspection / emulsion stability, daily visual inspection: +5°C; for emulsion quality (oil droplets, creaming, oil separation), daily inspection / emulsion quality, daily visual inspection / emulsion stability, daily visual inspection: 5 days; for emulsion quality, daily visual inspection: 5°C
# Method: A so-called mother concentrate was prepared by dissolving 6 g of egg-yolk phospholipids in 40 g of 4-methyl-3-oxo-pentanoic acid ethyl ester at +60°C, while stirring. 34 g of 99% ethyl alcohol were then added to the solution, whereafter the solution was cooled to room temperature and dispensed into 20 ml glass flasks. Nitrogen gas was then bubbled through the liquid and the flasks then stoppered and capsuled. The bottles were then autoclaved at +120°C and at 118 kPa for 20 minutes. A 10% fat emulsion for parenteral nutrient administration (Intralipid^R retailed by KabiVitrum AB, Stockholm) was added to the preparation under strict asceptic conditions, to a 4-methyl-3-oxo-pentanoic acid ethyl ester concentration of 0.2, 1 and 3% respectively. The emulsion was shaken for 5 minutes in a shaking machine and then placed in a cold environment (+5°C). The emulsion was thereafter observed over a 5 day period, wherewith a daily inspection was carried out to assess the formation of oil droplets, creaming or oil separation. The assessment was made in comparison with a known emulsion for parenteral use (Intralipid^R 10%). […] Subsequent to 5 days storage, an analysis was made of the pH and mean particle size in a Coulter nanosizer. The following values were obtained:
# (§2) A so-called mother concentrate produced by dissolving 6 g egg-yolk phospholipids in 40 g of 4-methyl-3-oxo-pentanoic acid-ethyl ester at +60°C, while stirring the system. 34 g of 99% ethyl alcohol were then added to the solution, whereafter the solution was cooled to room temperature and dispensed into 20 ml glass flasks. Nitrogen gas was perculated through the contents of the flasks, and the flasks subsequently stoppered and fitted with capsules. The flasks were then autoclaved at 120°C and 118 kPa over a period of 20 minutes. This preparation was added to a 20% fat emulsion (Intralipid^R) under strict aseptic conditions, such that the concentation of 4-methyl-3-oxo-pentanoic acid ethyl ester was 0.2 and 1 and 3% respectively. The emulsion was shaken for 5 minutes in a shaker and then placed in a cold environment (5°C). The emulsion was inspected over a period of 5 calender days, wherewith a visual inspection was carried out daily in order to ascertain the occurrence of any oil droplets that may form, creaming or oil separation. The assay was effected by comparison with a known emulsion for parenteral use (Intralipid^R 20%). […] The pH of the emulsion was measured after a 5 day storage period. The mean particle size was measured in a Coulter^R nanosizer. The following values were obtained:
# as §2, with “prepara tion” for “preparation”, “10%” for “20%”, “10%).” for “20%).”, “obtained: […]” for “obtained:”
# [3] = Total parenteral nutrition (TPN) with ester as energy substitute in rats; settings: 9 days
# Method: Sprague-Dawley male rats weighing 180-190 g were sur­gically fitted with a central vein catheter protected by a saddle (Roos et al, 1981). Total parenteral nutrition (TPN) was administered in accordance with the following standard formula: Fat: 8 g/kg body weight and 24 hours Nitrogen: 1,2 g/kg body weight and 24 hours Total energy supplied: 1257 kJ/kg body weight and 24 hours Liquid: 300 ml/kg body weight and 24 hours The glucose to fat ratio was 70-30 energy percent. The energy percentage obtained from the energy substitutes during the test period corresponded to about 5% NPC. The TPN-mixture was obtained by mixing Vamin^R 14 (a solution of essential and non-essential amino acids for paren­teral nutrient administration, retailed by KabiVitrum AB) with no electrolytes, glucose solution 50% and Intralipid^R 20% in suitable proportions and adding adequate quantities of electrolytes, trace minerals and vitamins. Subsequent to infusing the rats continuously for one week (20 hours/day), the animals were divided randomly into three groups, with 6 animals in each group. The animals of one group were administered with the same TPN-formula as that previously mentioned (the reference group). […] The compounds were given in a dosage of 2 g/kg body weight and 24 hours in a yield corres­ponding to equivalent glucose energy quantities. In other respects, the TPN-program or formula was the same as that for the reference group. The experiment was then continued for a further 9 days, during which the weights of the animals were recorded daily and urine collected and frozen. At the end of the test period, the rats were killed by heart puncture while under a pentobarbital anesthetic and an autopsy was performed on the rat carcasses with microscopic examination. The body organs were sent to a laboratory for pathological assay.
# [4] = Example 5: Intralipid 10%, 0.2% admix, after 5 days storage
# [5] = Example 5: Intralipid 10%, 1% admix, after 5 days storage
# [6] = Example 5: Intralipid 10%, 3% admix, after 5 days storage
# [7] = Example 30: Intralipid 20%, 0.2% admix
# [8] = Example 30: Intralipid 20%, 1% admix
# [9] = Example 30: Intralipid 20%, 3% admix
# [10] = Example 31: Intralipid 10%, 0.2% admix
# [11] = Example 31: Intralipid 10%, 1% admix
# [12] = Example 31: Intralipid 10%, 3% admix
# [13] = Example 31: Intralipid 10%, 5% admix
smiles,measurement,setting,value
CCOC(=O)CC(=O)C(C)C [4-methyl-3-oxo-pentanoic acid ethyl ester],number of microorganisms,Cand. parapsil. (yeast); 2 hrs,1000
same,number of microorganisms,Cand. parapsil. (yeast); 20 hrs,0
same,number of microorganisms,E. coli ATCC 8739; 2 hrs,0
same,number of microorganisms,E. coli ATCC 8739; 20 hrs,0
same,number of microorganisms,Enter. cloacae; 2 hrs,0
same,number of microorganisms,Enter. cloacae; 20 hrs,0
same,number of microorganisms,Proteus vulg. ATCC 13315; 2 hrs,0
same,number of microorganisms,Proteus vulg. ATCC 13315; 20 hrs,0
same,number of microorganisms,[1]; 2 hrs,0
same,number of microorganisms,[1]; 20 hrs,0
same,number of microorganisms,Serr. maresc. ATCC 14756; 2 hrs,0
same,number of microorganisms,Serr. maresc. ATCC 14756; 20 hrs,0
same,"Mean particle size (single readings, Coulter nanosizer)",[2]; [4],258 and 264 and 267 and 250
same,"Mean particle size, X",[2]; [4],261
same,pH,[2]; [4],7.2
same,"Mean particle size (single readings, Coulter nanosizer)",[2]; [5],245 and 253 and 250 and 235 and 242
same,"Mean particle size, X",[2]; [5],246
same,pH,[2]; [5],7.0
same,"Mean particle size (single readings, Coulter nanosizer)",[2]; [6],264 and 258 and 248 and 250
same,"Mean particle size, X",[2]; [6],258
same,pH,[2]; [6],6.8
same,"emulsion quality (oil droplets, creaming, oil separation), daily inspection",[2]; 1% addition,had no affect on the quality
same,"emulsion quality (oil droplets, creaming, oil separation), daily inspection",[2]; 3% addition,"fully acceptable, but deteriorated slowly during day 4 and 5"
same,"Mean particle size (single readings, Coulter nanosizer)",[2]; [7],325 and 316 and 320 and 327
same,"Mean particle size, X",[2]; [7],323
same,pH,"[2]; Example 30: Intralipid 20%, 0.2% admix, after 5 day storage",7.3
same,"Mean particle size (single readings, Coulter nanosizer)",[2]; [8],323 and 327 and 329 and 319 and 336
same,"Mean particle size, X",[2]; [8],326
same,pH,"[2]; Example 30: Intralipid 20%, 1% admix, after 5 day storage",6.9
same,"Mean particle size (single readings, Coulter nanosizer)",[2]; [9],322 and 319 and 320 and 333
same,"Mean particle size, X",[2]; [9],323
same,pH,"[2]; Example 30: Intralipid 20%, 3% admix, after 5 day storage",6.5
same,"emulsion quality, daily visual inspection","[2]; Example 30: mother concentrate in Intralipid 20%, 0.2% addition",No change in quality
same,"emulsion quality, daily visual inspection","[2]; Example 30: mother concentrate in Intralipid 20%, 1% addition",No change in quality
same,"emulsion quality, daily visual inspection","[2]; Example 30: mother concentrate in Intralipid 20%, 3-percent mixture",fully acceptable over the first 3 days
same,"Mean particle size (single readings, Coulter nanosizer)",[2]; [10],241 and 239 and 246
same,"Mean particle size, X",[2]; [10],241
same,pH,"[2]; Example 31: Intralipid 10%, 0.2% admix, after 5 day storage",7.3
same,"Mean particle size (single readings, Coulter nanosizer)",[2]; [11],244 and 249 and 246 and 251
same,"Mean particle size, X",[2]; [11],247
same,pH,"[2]; Example 31: Intralipid 10%, 1% admix, after 5 day storage",6.9
same,"Mean particle size (single readings, Coulter nanosizer)",[2]; [12],249 and 246 and 240 and 236 and 243
same,"Mean particle size, X",[2]; [12],243
same,pH,"[2]; Example 31: Intralipid 10%, 3% admix, after 5 day storage",6.7
same,"Mean particle size (single readings, Coulter nanosizer)",[2]; [13],244 and 252 and 254
same,"Mean particle size, X",[2]; [13],251
same,pH,"[2]; Example 31: Intralipid 10%, 5% admix, after 5 day storage",6.7
same,"emulsion quality, daily visual inspection","[2]; Example 31: mother concentrate in Intralipid 10%, 0.2% addition",No change in quality
same,"emulsion quality, daily visual inspection","[2]; Example 31: mother concentrate in Intralipid 10%, 1% addition",No change in quality
same,"emulsion quality, daily visual inspection","[2]; Example 31: mother concentrate in Intralipid 10%, 3% addition",No change in quality; also recorded: fully acceptable over the first 3 days
same,pH,"[2]; Example 34: 20 percent fat emulsion, 5% emulsion, end of 5-day period (reference emulsion pH=7.9)",5.0
same,"emulsion stability, daily visual inspection","[2]; Example 34: pure ester in 10% fat emulsion (Intralipid), 0.2%",stable over the whole of the test period
same,"emulsion stability, daily visual inspection","[2]; Example 34: pure ester in 10% fat emulsion, 1%",stable over the whole of the test period
same,"emulsion stability, daily visual inspection","[2]; Example 34: pure ester in 10% fat emulsion, 3%",stable over the whole of the test period
same,"emulsion stability, daily visual inspection","[2]; Example 34: pure ester in 10% fat emulsion, 5%",stable over the whole of the test period; also recorded: stable over the first 2 days
same,"emulsion stability, daily visual inspection","[2]; Example 34: pure ester in 20 percent fat emulsion, 1% admixture",remained stable over the whole of the test period
same,"emulsion stability, daily visual inspection","[2]; Example 34: pure ester in 20 percent fat emulsion, 5% admixture",remained stable for 2 days
same,toxicity at the dosages tested,[3]; 2 g/kg body weight and 24 hours,non-toxic
same,average growth per day during the whole of the test period,[3]; ester 2 g/kg body weight and 24 hours in place of equivalent glucose energy,3.7 ± 0.8 g
